Source: paper PMC10463376, “Design, synthesis, in vitro anticancer, molecular docking and SAR studies of new series of pyrrolo[2,3-d]pyrimidine derivatives” (BMC Chemistry, 2023)
In brackets after ≈: the same amount, converted by molar mass.

Assays:
MCF7 breast cancer cells = assay: MTT assay, MCF7; settings: for cytotoxicity at 100 µg/mL / IC50: Homo sapiens, MCF7, 72 h; for IC50: read-out: IC50 MCF7
Excerpt: (§1) All of the following steps were done in a sterile Laminar flow class II biosafety cabinet (Baker, SG406INT, Sanford, ME, USA). DMEM was used as a suspension medium for breast cancer (MCF7), colorectal cancer (HCT116), prostate cancer (PC3), liver cancer (HePG2), pancreatic cancer (PACA2) and lung cancer (A549), while normal cell line (BJ1) was suspended in DMEM-F12 medium. The selected cell lines were purchased from American Type Culture Collection (ATCC). The media were supplemented with a 1% antimycotic-antibiotic mixture (10,000 µg/ml streptomycin sulfate, 25 µg/ml Amphotericin B, and 10,000 U/ml Potassium Penicillin) and 1% L-glutamine. 10 × 10^4cells/well were seeded in 96 well microtiter plates and incubated for 24 h at 37 ℃ under 5% carbon dioxide using a water-jacketed Carbon dioxide incubator (Sheldon, SCO5A, OR, USA). […] After the incubation time of 72 h, the medium was removed. Afterward, 40 µl MTT salt ([…]) was added to each well and kept for 4 h under the same conditions of 37 °C and 5% carbon dioxide. Finally, 200 μl of 10% Sodium dodecyl sulfate (SDS) in deionized water was added to each well and incubated overnight at 37 °C. The step of SDS addition was done to stop the reaction and dissolve the formed formazan crystals. The absorbance was then measured at a wavelength of 595 nm and the reference wavelength was set at 620 nm using a microplate multi-well reader (Bio-Rad Laboratories Inc., model 3356, California, USA). […] A statistical significance analysis was determined between the samples and the negative control using an independent t-test by SPSS 11 program. Dimethyl sulfoxide (DMSO) was the vehicle that dissolved our synthesized compounds and its concentration in the cells was less than 0.2%. IC50 values were calculated using the GraphPad Prism 6 program. The degree of selectivity of the synthetic compounds was expressed as SI = IC50 of a pure compound in a normal cell line/IC50 of the same pure compound in the cancer cell line, where IC50 is the concentration of the compound required to kill 50% of the cells.

[1] = system: PC3 prostate cancer cells; assay: MTT assay, PC3; settings: Homo sapiens, 72 h; for cytotoxicity at 100 µg/mL: read-out: MTT cell proliferation mortality assay (%) PC3, at 100 μg/ml, 72 h
Excerpt: as §1

A549 lung cancer cells = assay: MTT assay, A549; settings: for cytotoxicity at 100 µg/mL: read-out: MTT cell proliferation mortality assay (%) A549, at 100 μg/ml, 72 h
Excerpt: as §1

[2] = MTT assay, normal cell line BJ1; assay type: cell-based; settings: human, at 100 μg/ml, read-out: MTT cell proliferation mortality assay (%) BJ1
Excerpt: as §1

[3] = system: HCT116 colorectal cancer cells; assay: MTT assay, HCT116; settings: for IC50 / cytotoxicity at 100 µg/mL: Homo sapiens, HCT-116, 72 h; for IC50: read-out: IC50 HCT116; for cytotoxicity at 100 µg/mL: read-out: MTT cell proliferation mortality assay (%) HCT116, at 100 μg/ml, 72 h; for cytotoxicity: read-out: MTT cell proliferation mortality assay (%) HCT116, at 100 μg/ml, 72 h
Excerpt: as §1

HePG2 liver cancer cells = assay: MTT assay, HePG2; settings: Homo sapiens, HepG2, 72 h; for IC50: read-out: IC50 HePG2; for cytotoxicity at 100 µg/mL: read-out: MTT cell proliferation mortality assay (%) HePG2
Excerpt: as §1

[4] = system: PACA2 pancreatic cancer cells; assay: MTT assay, PACA2; settings: Homo sapiens, PaCa-2, 72 h; for cytotoxicity at 100 µg/mL: read-out: MTT cell proliferation mortality assay (%) PACA2; for IC50: read-out: IC50 PACA2
Excerpt: as §1

[5] = read-out: MTT cell proliferation mortality assay (%) MCF7

## O=c1[nH]cnc2c1c(-c1ccc(Br)cc1)cn2-c1ccc(Cl)cc1Cl [Compound 3a, 5-(4-bromophenyl)-7-(2,4-dichlorophenyl)-3,7-dihydro-4H-pyrrolo[2,3-d]pyrimidin-4-one]
MCF7 breast cancer cells; [5]
  cytotoxicity at 100 µg/mL: 63.5 ± 2.6%
[1]
  cytotoxicity at 100 µg/mL: 36.5 ± 0.9%
A549 lung cancer cells; Homo sapiens, A549, 72 h
  cytotoxicity at 100 µg/mL: 3.4 ± 0.2%
[2]
  cytotoxicity at 72 h, 100 μg/ml: 95.3 ± 1.8%
[3]
  IC50: 44.5 ± 1.3 µg/mL (≈ 102 µM)
  cytotoxicity at 100 µg/mL: 80 to 90%
  cytotoxicity: 84.3 ± 1.1%
HePG2 liver cancer cells
  IC50: 19.2 ± 0.6 µg/mL (≈ 44.1 µM)
  cytotoxicity at 100 µg/mL: 100%
[4]
  cytotoxicity at 100 µg/mL: 71.3 ± 0.8%

## COc1ccc(-c2cn(-c3ccc(Cl)cc3Cl)c3nc[nH]c(=O)c23)cc1OC [Compound 3b, 7-(2,4-dichlorophenyl)-5-(3,4-dimethoxyphenyl)-3,7-dihydro-4H-pyrrolo[2,3-d]pyrimidin-4-one]
MCF7 breast cancer cells; [5]
  cytotoxicity at 100 µg/mL: 11.5 ± 0.8%
[1]
  cytotoxicity at 100 µg/mL: 15.6 ± 1.3%
A549 lung cancer cells; Homo sapiens, A549, 72 h
  cytotoxicity at 100 µg/mL: 8.5 ± 0.6%
[2]
  cytotoxicity at 72 h, 100 μg/ml: 3.5 ± 0.9%
[3]
  cytotoxicity at 100 µg/mL: 14.6 ± 0.1%
HePG2 liver cancer cells
  cytotoxicity at 100 µg/mL: 10.4 ± 1.7%
[4]
  IC50: 69.7 ± 1.3 µg/mL (≈ 167 µM)
  cytotoxicity at 100 µg/mL: 76.3 ± 1.8%

## Clc1ccc(-n2c(Cl)c(-c3ccc(Br)cc3)c3c(Cl)ncnc32)c(Cl)c1 [Compound 4a, 5-(4-bromophenyl)-4,6-dichloro-7-(2,4-dichlorophenyl)-7H-pyrrolo[2,3-d]pyrimidine]
MCF7 breast cancer cells
  IC50: 32.4 ± 0.8 µg/mL (≈ 66.4 µM)
MCF7 breast cancer cells; [5]
  cytotoxicity at 100 µg/mL: 100%
[1]
  cytotoxicity at 100 µg/mL: 53 ± 0.7%
A549 lung cancer cells; Homo sapiens, A549, 72 h, read-out: IC50 A549
  IC50: 68.9 ± 0.5 µg/mL (≈ 141 µM)
A549 lung cancer cells; Homo sapiens, A549, 72 h
  cytotoxicity at 100 µg/mL: 80 to 90%
A549 lung cancer cells; read-out: MTT cell proliferation mortality assay (%) A549, at 100 μg/ml, 72 h
  cytotoxicity: 79.4 ± 1.6%
[2]
  cytotoxicity at 72 h, 100 μg/ml: 74.6 ± 0.6%
[3]
  cytotoxicity at 100 µg/mL: 74.2 ± 2.5%
HePG2 liver cancer cells
  cytotoxicity at 100 µg/mL: 43.5 ± 2.2%
[4]
  IC50: 24.1 ± 1 µg/mL (≈ 49.4 µM)
  cytotoxicity at 100 µg/mL: 100%

## Clc1ccc(-n2cc(-c3ccc(Br)cc3)c3c(Cl)ncnc32)c(Cl)c1 [Compound 5, 5-(4-bromophenyl)-4-chloro-7-(2,4-dichlorophenyl)-7H-pyrrolo[2,3-d]pyrimidine]
MCF7 breast cancer cells; [5]
  cytotoxicity at 100 µg/mL: 27.9 ± 1.2%
[1]
  cytotoxicity at 100 µg/mL: 42.3 ± 1.3%
A549 lung cancer cells; Homo sapiens, A549, 72 h
  cytotoxicity at 100 µg/mL: 25.1 ± 0.7%
[2]
  cytotoxicity at 72 h, 100 μg/ml: 16.3 ± 2%
[3]
  cytotoxicity at 100 µg/mL: 60.4 ± 0.9%
HePG2 liver cancer cells
  cytotoxicity at 100 µg/mL: 34.5 ± 2.9%
[4]
  cytotoxicity at 100 µg/mL: 29.3 ± 0.8%

## Cc1nc2c(c(-c3ccc(Br)cc3)cn2-c2ccc(Cl)cc2Cl)c(=O)[nH]1 [Compound 6, 5-(4-bromophenyl)-7-(2,4-dichlorophenyl)-2-methyl-3,7-dihydro-4H-pyrrolo[2,3-d]pyrimidin-4-one]
MCF7 breast cancer cells
  IC50: 15.2 ± 0.9 µg/mL (≈ 33.8 µM)
MCF7 breast cancer cells; [5]
  cytotoxicity at 100 µg/mL: 100%
[1]; read-out: IC50 PC3
  IC50: 31.1 ± 0.9 µg/mL (≈ 69.2 µM)
[1]
  cytotoxicity at 100 µg/mL: 100%
[2]
  cytotoxicity at 72 h, 100 μg/ml: 84.9 ± 0.7%
[3]
  IC50: 31.2 ± 0.9 µg/mL (≈ 69.5 µM)
  cytotoxicity at 100 µg/mL: 100%
[4]
  IC50: 40 ± 1 µg/mL (≈ 89.1 µM)
  cytotoxicity at 100 µg/mL: 100%

## Clc1ccc(-n2c(Cl)c(-c3ccc(Br)cc3)c3c(Cl)nc(C(Cl)(Cl)Cl)nc32)c(Cl)c1 [Compound 7, 5-(4-bromophenyl)-4,6-dichloro-7-(2,4-dichlorophenyl)-2-(trichloromethyl)-7H-pyrrolo[2,3-d]pyrimidine]
MCF7 breast cancer cells
  IC50: 16.2 ± 1.6 µg/mL (≈ 26.8 µM)
MCF7 breast cancer cells; [5]
  cytotoxicity at 100 µg/mL: 100%
[1]
  cytotoxicity at 100 µg/mL: 54.2 ± 1.6%
A549 lung cancer cells; Homo sapiens, A549, 72 h
  cytotoxicity at 100 µg/mL: 14.2 ± 0.8%
[2]
  cytotoxicity at 72 h, 100 μg/ml: 100%
[3]
  cytotoxicity at 100 µg/mL: 100%
[4]
  cytotoxicity at 100 µg/mL: 100%

## COc1nc(C(Cl)(Cl)Cl)nc2c1c(-c1ccc(Br)cc1)c(Cl)n2-c1ccc(Cl)cc1Cl [Compound 8, 5-(4-bromophenyl)-6-chloro-7-(2,4-dichlorophenyl)-4-methoxy-2-(trichloromethyl)-7H-pyrrolo[2,3-d]pyrimidine]
MCF7 breast cancer cells
  IC50: 48 ± 1.5 µg/mL (≈ 79.9 µM)
MCF7 breast cancer cells; [5]
  cytotoxicity at 100 µg/mL: 84.3 ± 2.5%
MCF7 breast cancer cells; read-out: MTT cell proliferation mortality assay (%) MCF7, at 100 μg/ml, 72 h
  cytotoxicity: 80 to 95%
[1]
  cytotoxicity at 100 µg/mL: 13.5 ± 1.5%
A549 lung cancer cells; Homo sapiens, A549, 72 h
  cytotoxicity at 100 µg/mL: 19.3 ± 1.2%
[2]
  cytotoxicity at 72 h, 100 μg/ml: 15.6 ± 2.8%
[3]
  IC50: 68.1 ± 1 µg/mL (≈ 113 µM)
  cytotoxicity at 100 µg/mL: 80 to 90%
  cytotoxicity: 80 ± 1%
HePG2 liver cancer cells
  IC50: 17.8 ± 1.3 µg/mL (≈ 29.6 µM)
  cytotoxicity at 100 µg/mL: 100%
[4]
  IC50: 23.5 ± 0.6 µg/mL (≈ 39.1 µM)
  cytotoxicity at 100 µg/mL: 100%
